Test results taken from ChEMBL document CHEMBL5715954, “Silencing c-Myc translation as a therapeutic strategy through targeting PI3Kδ and CK1ε in hematological malignancies” (Blood, 2017).

Assays:
Parameters in all cases: scale not given: the % may be the effect or the level left
[1] = target: Calcium/calmodulin-dependent protein kinase type II subunit delta (Homo sapiens) (UniProt Q13557); assay: Inhibition of human CAMK2d assessed as enzyme activity at 1 uM using KKLNRTLSFAEPG as substrate preincubated for 20 mins followed by [gamma-33P]-ATP addition and measured after 120 mins by radiometric Hot-SpotSM Kinase assay relative to control
[2] = target: CDK18/Cyclin Y (Homo sapiens) (UniProt Q07002+Q8ND76); assay: Inhibition of human CDK18/cyclin Y assessed as enzyme activity at 1 uM using RB Protein as substrate preincubated for 20 mins followed by [gamma-33P]-ATP addition and measured after 120 mins by radiometric Hot-SpotSM Kinase assay relative to control; format: protein-complex assay
[3] = target: Tyrosine-protein kinase Fer (Homo sapiens) (UniProt P16591); assay: Inhibition of human FER assessed as enzyme activity at 1 uM using poly[Glu:Tyr] (4:1) as substrate preincubated for 20 mins followed by [gamma-33P]-ATP addition and measured after 120 mins by radiometric Hot-SpotSM Kinase assay relative to control
[4] = target: G protein-coupled receptor kinase 6 (Homo sapiens) (UniProt P43250); assay: Inhibition of human GRK6 assessed as enzyme activity at 1 uM using casein as substrate preincubated for 20 mins followed by [gamma-33P]-ATP addition and measured after 120 mins by radiometric Hot-SpotSM Kinase assay relative to control
[5] = target: T1, Myosin-IIIb (Homo sapiens) (UniProt Q8WXR4); assay: Inhibition of human MYO3b assessed as enzyme activity at 1 uM using myelin basic protein as substrate preincubated for 20 mins followed by [gamma-33P]-ATP addition and measured after 120 mins by radiometric Hot-SpotSM Kinase assay relative to control
T1 sequence (whole entry): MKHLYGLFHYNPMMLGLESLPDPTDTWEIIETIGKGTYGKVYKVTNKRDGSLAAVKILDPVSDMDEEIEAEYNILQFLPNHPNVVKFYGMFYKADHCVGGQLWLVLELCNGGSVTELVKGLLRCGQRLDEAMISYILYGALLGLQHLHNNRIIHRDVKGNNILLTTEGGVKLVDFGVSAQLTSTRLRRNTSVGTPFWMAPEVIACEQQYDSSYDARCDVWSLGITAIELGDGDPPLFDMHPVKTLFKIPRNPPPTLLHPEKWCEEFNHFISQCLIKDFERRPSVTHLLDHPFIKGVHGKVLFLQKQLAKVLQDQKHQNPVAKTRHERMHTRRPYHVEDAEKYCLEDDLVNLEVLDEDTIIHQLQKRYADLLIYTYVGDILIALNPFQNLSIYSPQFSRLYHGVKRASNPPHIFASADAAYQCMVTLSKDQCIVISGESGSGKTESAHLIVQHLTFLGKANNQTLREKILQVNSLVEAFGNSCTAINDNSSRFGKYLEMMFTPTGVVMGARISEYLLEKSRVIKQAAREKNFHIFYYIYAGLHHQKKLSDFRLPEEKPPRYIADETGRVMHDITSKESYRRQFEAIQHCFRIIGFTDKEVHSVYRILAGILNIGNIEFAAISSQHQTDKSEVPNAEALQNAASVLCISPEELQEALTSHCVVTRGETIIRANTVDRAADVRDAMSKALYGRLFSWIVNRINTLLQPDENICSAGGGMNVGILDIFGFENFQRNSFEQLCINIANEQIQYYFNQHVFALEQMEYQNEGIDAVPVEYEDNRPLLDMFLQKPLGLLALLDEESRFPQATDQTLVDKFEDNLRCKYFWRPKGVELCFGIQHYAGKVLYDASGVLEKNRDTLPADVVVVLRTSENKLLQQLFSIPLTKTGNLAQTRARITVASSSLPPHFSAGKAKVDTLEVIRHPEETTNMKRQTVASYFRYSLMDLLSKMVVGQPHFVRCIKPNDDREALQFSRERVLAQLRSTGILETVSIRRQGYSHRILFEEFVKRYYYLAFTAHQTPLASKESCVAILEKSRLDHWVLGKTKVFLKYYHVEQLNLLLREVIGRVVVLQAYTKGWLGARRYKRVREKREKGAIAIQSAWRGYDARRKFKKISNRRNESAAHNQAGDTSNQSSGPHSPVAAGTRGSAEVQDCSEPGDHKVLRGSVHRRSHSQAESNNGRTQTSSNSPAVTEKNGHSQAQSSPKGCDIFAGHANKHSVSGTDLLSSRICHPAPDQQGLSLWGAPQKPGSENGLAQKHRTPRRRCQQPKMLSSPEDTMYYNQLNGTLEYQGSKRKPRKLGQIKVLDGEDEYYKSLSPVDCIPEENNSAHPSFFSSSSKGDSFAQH

[6] = target: T2, 3-phosphoinositide-dependent protein kinase 1 (Homo sapiens) (UniProt O15530); assay: Inhibition of human PDK1 assessed as enzyme activity at 1 uM using KTFCGTPEYLAPEVRREPRILSEEEQEMFRDFDYIADWC as substrate preincubated for 20 mins followed by [gamma-33P]-ATP addition and measured after 120 mins by radiometric Hot-SpotSM Kinase assay relative to control
T2 sequence (whole entry): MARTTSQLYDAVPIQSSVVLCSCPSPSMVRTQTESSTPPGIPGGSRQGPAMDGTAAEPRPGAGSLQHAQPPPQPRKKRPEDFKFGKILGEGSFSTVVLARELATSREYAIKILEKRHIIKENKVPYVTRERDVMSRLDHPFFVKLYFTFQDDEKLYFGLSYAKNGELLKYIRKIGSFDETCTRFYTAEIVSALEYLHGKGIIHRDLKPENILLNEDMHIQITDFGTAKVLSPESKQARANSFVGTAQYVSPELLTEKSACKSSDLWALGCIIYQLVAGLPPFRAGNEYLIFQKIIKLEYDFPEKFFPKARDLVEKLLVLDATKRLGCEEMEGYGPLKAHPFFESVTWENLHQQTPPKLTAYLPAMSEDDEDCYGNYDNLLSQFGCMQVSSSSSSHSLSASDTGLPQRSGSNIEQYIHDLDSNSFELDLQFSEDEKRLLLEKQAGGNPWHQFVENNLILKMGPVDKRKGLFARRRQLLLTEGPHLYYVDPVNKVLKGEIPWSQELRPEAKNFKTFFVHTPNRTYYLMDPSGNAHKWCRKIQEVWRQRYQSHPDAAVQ

[7] = target: STE20-like serine/threonine-protein kinase (Homo sapiens) (UniProt Q9H2G2); assay: Inhibition of human SLK assessed as enzyme activity at 1 uM using histone H3 as substrate preincubated for 20 mins followed by [gamma-33P]-ATP addition and measured after 120 mins by radiometric Hot-SpotSM Kinase assay relative to control
[8] = target: TRAF2 and NCK-interacting protein kinase (Homo sapiens) (UniProt Q9UKE5); assay: Inhibition of human TNIK assessed as enzyme activity at 1 uM using RLGRDKYKTLRQIRQ as substrate preincubated for 20 mins followed by [gamma-33P]-ATP addition and measured after 120 mins by radiometric Hot-SpotSM Kinase assay relative to control
[9] = target: Tyrosine-protein kinase Yes (Homo sapiens) (UniProt P07947); assay: Inhibition of human YES assessed as enzyme activity at 1 uM using poly[Glu:Tyr] (4:1) as substrate preincubated for 20 mins followed by [gamma-33P]-ATP addition and measured after 120 mins by radiometric Hot-SpotSM Kinase assay relative to control
Sequence of Tyrosine-protein kinase Yes (Homo sapiens) (P07947 2-543 limits assumed): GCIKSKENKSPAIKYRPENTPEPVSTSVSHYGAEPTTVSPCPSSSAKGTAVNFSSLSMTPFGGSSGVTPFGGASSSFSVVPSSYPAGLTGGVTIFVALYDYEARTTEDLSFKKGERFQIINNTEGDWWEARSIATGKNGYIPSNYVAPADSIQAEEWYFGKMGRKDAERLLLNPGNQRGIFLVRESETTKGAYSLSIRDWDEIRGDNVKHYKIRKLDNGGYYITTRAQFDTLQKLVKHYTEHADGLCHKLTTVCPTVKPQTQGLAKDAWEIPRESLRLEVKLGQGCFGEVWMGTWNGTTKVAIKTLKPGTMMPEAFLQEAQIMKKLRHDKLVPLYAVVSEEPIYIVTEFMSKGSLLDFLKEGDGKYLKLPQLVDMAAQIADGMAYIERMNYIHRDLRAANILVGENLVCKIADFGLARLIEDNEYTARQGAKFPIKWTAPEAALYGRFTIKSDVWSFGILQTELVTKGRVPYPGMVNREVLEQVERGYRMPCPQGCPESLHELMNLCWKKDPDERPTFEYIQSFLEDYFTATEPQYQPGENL

Sequence of Tyrosine-protein kinase Fer (Homo sapiens) (P16591 whole entry, looked up): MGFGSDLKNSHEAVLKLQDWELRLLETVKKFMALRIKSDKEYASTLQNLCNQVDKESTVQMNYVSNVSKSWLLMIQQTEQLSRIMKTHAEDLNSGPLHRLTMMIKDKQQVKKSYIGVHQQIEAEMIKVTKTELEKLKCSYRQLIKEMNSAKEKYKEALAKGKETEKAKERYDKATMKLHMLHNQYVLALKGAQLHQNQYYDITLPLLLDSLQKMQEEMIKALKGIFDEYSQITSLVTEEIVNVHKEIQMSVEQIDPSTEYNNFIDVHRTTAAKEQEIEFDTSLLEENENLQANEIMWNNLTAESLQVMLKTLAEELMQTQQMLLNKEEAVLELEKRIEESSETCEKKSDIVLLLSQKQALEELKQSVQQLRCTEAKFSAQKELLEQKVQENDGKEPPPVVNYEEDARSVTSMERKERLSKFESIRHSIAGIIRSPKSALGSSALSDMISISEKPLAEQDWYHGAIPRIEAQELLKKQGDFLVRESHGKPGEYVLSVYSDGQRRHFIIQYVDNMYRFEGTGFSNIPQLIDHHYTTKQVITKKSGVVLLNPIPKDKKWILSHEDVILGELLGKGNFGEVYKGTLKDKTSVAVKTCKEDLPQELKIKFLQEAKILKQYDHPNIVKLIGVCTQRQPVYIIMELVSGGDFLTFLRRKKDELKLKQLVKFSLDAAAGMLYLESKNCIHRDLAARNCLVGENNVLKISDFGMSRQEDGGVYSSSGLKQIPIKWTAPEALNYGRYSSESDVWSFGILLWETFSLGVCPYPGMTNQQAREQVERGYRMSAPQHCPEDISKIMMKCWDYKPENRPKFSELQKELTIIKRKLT
Sequence of Calcium/calmodulin-dependent protein kinase type II subunit delta (Homo sapiens) (Q13557 whole entry): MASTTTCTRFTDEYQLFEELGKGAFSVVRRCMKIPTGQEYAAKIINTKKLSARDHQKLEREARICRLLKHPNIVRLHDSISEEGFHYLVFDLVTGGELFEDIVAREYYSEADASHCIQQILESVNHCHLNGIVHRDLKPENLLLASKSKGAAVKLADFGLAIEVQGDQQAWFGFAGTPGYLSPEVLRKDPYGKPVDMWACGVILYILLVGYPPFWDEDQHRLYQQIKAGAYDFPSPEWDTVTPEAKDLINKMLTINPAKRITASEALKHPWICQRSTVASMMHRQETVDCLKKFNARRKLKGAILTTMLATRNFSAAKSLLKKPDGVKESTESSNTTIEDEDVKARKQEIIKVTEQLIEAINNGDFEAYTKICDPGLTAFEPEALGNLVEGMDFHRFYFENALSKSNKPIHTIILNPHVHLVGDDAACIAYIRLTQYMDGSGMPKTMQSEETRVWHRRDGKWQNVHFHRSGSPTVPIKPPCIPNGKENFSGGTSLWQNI
Sequence of G protein-coupled receptor kinase 6 (Homo sapiens) (P43250 whole entry, looked up): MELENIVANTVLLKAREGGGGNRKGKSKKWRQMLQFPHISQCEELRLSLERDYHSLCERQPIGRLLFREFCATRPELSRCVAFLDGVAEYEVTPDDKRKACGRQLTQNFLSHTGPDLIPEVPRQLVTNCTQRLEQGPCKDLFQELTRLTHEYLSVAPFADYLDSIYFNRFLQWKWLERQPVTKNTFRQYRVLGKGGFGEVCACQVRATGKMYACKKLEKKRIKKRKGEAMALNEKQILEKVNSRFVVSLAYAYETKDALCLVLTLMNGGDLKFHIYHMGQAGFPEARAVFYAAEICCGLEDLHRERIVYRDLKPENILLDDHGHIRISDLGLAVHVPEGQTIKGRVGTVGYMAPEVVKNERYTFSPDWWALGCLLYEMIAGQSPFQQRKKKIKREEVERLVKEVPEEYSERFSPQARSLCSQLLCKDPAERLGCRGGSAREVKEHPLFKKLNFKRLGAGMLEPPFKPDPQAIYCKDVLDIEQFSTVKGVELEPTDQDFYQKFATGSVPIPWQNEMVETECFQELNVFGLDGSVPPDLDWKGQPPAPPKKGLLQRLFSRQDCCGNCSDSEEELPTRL
Sequence of TRAF2 and NCK-interacting protein kinase (Homo sapiens) (Q9UKE5 whole entry, looked up): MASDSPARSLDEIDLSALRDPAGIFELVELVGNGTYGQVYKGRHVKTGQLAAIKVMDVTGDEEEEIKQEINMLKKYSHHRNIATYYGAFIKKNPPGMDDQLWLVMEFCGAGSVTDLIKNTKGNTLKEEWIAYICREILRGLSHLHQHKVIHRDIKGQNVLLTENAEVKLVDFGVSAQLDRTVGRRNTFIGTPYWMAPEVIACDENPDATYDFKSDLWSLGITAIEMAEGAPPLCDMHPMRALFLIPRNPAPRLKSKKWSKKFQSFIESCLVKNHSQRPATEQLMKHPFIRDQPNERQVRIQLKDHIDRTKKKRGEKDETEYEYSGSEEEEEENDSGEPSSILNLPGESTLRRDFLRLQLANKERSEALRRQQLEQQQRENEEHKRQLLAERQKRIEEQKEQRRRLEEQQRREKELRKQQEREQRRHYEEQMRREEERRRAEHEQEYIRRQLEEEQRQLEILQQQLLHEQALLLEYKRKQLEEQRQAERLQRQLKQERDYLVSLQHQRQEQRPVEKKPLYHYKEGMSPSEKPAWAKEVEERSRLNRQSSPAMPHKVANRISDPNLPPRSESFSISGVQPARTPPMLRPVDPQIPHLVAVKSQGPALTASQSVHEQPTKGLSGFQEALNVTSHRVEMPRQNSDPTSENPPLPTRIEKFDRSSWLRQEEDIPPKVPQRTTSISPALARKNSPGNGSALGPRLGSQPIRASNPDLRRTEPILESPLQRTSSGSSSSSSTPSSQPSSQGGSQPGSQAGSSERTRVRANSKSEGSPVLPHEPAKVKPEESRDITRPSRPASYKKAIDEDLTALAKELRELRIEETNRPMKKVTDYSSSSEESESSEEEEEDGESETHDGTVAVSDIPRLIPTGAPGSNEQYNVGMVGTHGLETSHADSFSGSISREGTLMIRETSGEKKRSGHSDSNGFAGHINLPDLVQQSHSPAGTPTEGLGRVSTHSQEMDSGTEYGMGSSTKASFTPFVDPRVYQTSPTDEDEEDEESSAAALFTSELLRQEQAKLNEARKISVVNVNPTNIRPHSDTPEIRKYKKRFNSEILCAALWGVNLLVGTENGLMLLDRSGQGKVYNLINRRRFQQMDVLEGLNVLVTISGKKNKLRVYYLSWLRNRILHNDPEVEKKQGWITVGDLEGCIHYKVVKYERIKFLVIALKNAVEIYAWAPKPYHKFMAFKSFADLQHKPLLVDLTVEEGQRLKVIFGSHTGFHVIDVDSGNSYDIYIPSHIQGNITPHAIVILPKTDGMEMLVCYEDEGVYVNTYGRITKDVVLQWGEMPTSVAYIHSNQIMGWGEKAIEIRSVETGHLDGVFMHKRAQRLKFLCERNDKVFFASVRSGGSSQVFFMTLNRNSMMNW
Sequence of STE20-like serine/threonine-protein kinase (Homo sapiens) (Q9H2G2 whole entry, looked up): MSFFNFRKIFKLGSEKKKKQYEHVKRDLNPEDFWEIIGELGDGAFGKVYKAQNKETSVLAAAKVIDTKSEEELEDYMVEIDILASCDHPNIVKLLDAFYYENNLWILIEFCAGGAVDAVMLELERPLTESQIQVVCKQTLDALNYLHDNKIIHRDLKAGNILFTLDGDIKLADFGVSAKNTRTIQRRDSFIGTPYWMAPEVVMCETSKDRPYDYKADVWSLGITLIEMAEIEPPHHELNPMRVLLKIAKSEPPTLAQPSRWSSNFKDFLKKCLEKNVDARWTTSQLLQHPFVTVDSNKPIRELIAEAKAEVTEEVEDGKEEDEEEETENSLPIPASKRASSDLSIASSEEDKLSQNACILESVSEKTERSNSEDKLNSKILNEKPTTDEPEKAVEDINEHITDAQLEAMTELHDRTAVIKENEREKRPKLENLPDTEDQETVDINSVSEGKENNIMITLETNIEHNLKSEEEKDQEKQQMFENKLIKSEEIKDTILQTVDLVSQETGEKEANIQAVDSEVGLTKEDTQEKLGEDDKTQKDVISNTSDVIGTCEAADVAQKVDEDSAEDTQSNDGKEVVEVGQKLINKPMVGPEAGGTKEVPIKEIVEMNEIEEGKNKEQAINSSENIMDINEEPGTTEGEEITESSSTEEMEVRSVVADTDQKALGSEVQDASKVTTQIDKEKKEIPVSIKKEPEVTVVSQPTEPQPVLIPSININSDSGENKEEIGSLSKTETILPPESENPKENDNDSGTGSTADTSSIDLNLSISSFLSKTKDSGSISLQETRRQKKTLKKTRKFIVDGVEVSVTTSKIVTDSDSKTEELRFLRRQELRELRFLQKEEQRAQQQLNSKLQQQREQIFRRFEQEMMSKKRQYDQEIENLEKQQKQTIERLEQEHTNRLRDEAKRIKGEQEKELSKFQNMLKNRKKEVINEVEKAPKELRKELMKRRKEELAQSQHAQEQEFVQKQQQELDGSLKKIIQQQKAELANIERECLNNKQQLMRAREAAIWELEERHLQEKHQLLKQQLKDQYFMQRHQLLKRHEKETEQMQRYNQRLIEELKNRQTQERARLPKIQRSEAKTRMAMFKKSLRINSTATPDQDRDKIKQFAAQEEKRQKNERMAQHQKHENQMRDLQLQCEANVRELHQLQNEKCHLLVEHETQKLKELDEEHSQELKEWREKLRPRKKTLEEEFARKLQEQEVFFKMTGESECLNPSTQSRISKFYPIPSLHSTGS

C[C@H](Nc1ncnc2nc[nH]c12)c1cc2cccc(Cl)c2c(=O)n1-c1ccccc1
Activity [1]: 104%
Activity [2]: 100%
Activity [3]: 91.7%
Activity [4]: 96.9%
Activity [5]: 114%
Activity [6]: 94.6%
Activity [7]: 97.5%
Activity [8]: 99.7%
Activity [9]: 94.2%

CC[C@H](Nc1ncnc2[nH]cnc12)c1nc2cccc(F)c2c(=O)n1-c1ccccc1
Activity [1]: 107%
Activity [2]: 85.7%
Activity [3]: 97.2%
Activity [4]: 99.5%
Activity [5]: 93.5%
Activity [6]: 94.6%
Activity [7]: 97.3%
Activity [8]: 94.5%
Activity [9]: 93.1%

CC(C)Oc1ccc(-c2nn([C@@H](C)c3oc4ccc(F)cc4c(=O)c3-c3cccc(F)c3)c3ncnc(N)c23)cc1F [UMBRALISIB]
Activity [1]: 103%
Activity [2]: 94.6%
Activity [3]: 94.5%
Activity [4]: 102%
Activity [5]: 121%
Activity [6]: 92.8%
Activity [7]: 94.5%
Activity [8]: 97.7%
Activity [9]: 93.5%
